The assay can be described thus: Fluorescence titration of sensor with norepinephrine. Type of assay: binding. The following applies: for Ka: pH 5.0, 37° C. As for the experimental part:
Fluorescence spectra were recorded on a Shimadzu RF-5301 PC spectrofluorometer at 37° C. A 1 mg/mL stock solution of I-2 in DMSO was prepared. A stock solution of I-2 in buffer (1×10^−5 M, 25 mM HEPES, 50 mM Na2S2O3, pH=5.0) was prepared. Norepinephrine, dopamine, epinephrine, and glutamate stock solutions were prepared by separately dissolving the analytes at the concentration to be used in the titration with the buffered stock solution of I-2 (thus avoiding dilution of I-2 during the experiment). I-2 was titrated with aliquots of analyte solution. The sensor was excited at 488 nm with slit widths of 5 nm.
Fluorescence spectra were recorded on a Shimadzu RF-5301 PC spectrofluorometer at 37° C. A separate 1 mg/mL stock solution of each coumarin-3-aldehyde derivative in DMSO was prepared. An aqueous stock solution of each derivative (10 μM) in buffer (25 mM HEPES, 50 mM Na2S2O3, pH=5.0) was prepared. Norepinephrine, dopamine, glutamate, and epinephrine stock solutions were prepared by separately dissolving the solid analytes at the concentration to be used in the titration with the buffered stock solutions described above and thus, avoiding dilution of the sensor during the experiment. The benzene-based NS521 derivatives were excited at 488 nm. The thiophene-based derivatives were excited at 515 nm.

Where [1] appears, read: Table 2, analyte norepinephrine, benzene-based compounds I, excited at 488 nm.

`CCN(CC)c1ccc2c(-c3ccc(OC)cc3)c(C=O)c(=O)oc2c1` [Compound I-2, 7-diethylamino-3-formyl-4-(4′-methoxyphenyl)coumarin]: the F.E. under setting [1] is reported as 5.40. Besides, the Ka by setting is: under setting [1], 77.76 M⁻¹; (amine guest norepinephrine, fluorescence spectroscopy, λex = 488 nm, λem = 521 nm) 75 M⁻¹. Further, the “Isat/Io (λex = 488 nm)” value (amine guest norepinephrine, intensity at saturation from fit to binding isotherm) was determined as 5.3. In addition, the “binding constants of catecholamines (norepinephrine, dopamine) relative to other alkyl amines such as glycine” value (higher binding constants) was determined as 10 fold.
